Columns and labels:
[1] = system: Rat Aortic Smooth Muscle Cells (RASMC); test: Smooth muscle cell proliferation - cell counts (Example 1); assay type: cell-based; conditions: for Inhibition of cellular proliferation (in words): cell counts after 72 h, tested 0.25-100 μM
Excerpt: The Rat Aortic Smooth Muscle Cells (RASMC) used in proliferative studies are derived from the tunica intima and tunica media of healthy, fibrous plaque-free adult rat aorta. This cell line is an accepted model for the study of atherosclerosis, since increased arterial smooth muscle mass are found in the intima lesion of atherosclerosis. RASMC are cryopreserved at second passage and can be propagated at least 16 population doublings. RASMC respond to various factors by cell proliferation and hypertrophy, which are prominent indicators of atherosclerosis in vascular disease. RASMC are well suited for the study of large vessel smooth muscle cell growth and differentiation and serve as an in vitro model in correlation with live rat models.
Rat Aortic Smooth Muscle Cells (RASMC) were seeded in growth medium (basal medium+10% FBS) into 6 well plates (50,000 cells/well). After 24 h, cells were washed twice with Hanks Buffered Salt Solution and serum depleted media (basal medium+0.2% FBS) was added to each well. Cells were serum starved for 48 h. Treatments were then prepared in growth medium and added to each well (3 ml/well). Each treatment was conducted in triplicate. The effect of tocopherol and tocopherol phosphate on smooth muscle cell proliferation was tested at eight concentrations: 0.25, 0.5, 1, 5, 10, 20, 50 and 100 μM. Control treatments included: growth medium and growth medium+vehicle (EtOH, 1/1000). After a 72 h incubation period at 37° C., 5% CO2, cells were counted.
Cell proliferation was assessed and quantified by cell counting. Cells were counted after 48 h starvation in basal medium supplemented with 0.2% serum before the addition of test compounds. The average cell count of triplicate wells was ˜60,000. This number exceeds the number of cells seeded prior to starvation (50,000). Therefore the cells were determined to be viable and treatments were added to each well as described previously.

CD36 scavenger receptor = test: Surface expression of CD36 scavenger receptor, FACS with antiCD36-FITC; assay type: cell-based, human; conditions: THP-1 monocytes, control cells treated with tocopherol
Protocol: (§1) Cell Culture: Tocopherol and the TP/T2P mixture were each dissolved in ethanol, and the concentrations of the stock solutions were confirmed spectrophotometrically. Monocytes (THP-1) were grown in RPMI/10% FCS.
FIG. 6 represents the change in cell numbers over time as indicated by the number of cells which have taken up the fluorescent antibody.

THP-1 monocytes [2] = test: Uptake of oxLDL-DiO by FACS; assay type: cell-based, human
Protocol: Labeling oxLDL. OxLDLs (90% to 100% oxidation) were purchased from Intracell Corp. Small amounts of LDL were oxidized with CuSO4 ([…]) at 37° C. for 18 to 22 hours. LDL oxidation was confirmed by the formation of a characteristic smear band on an agarose gel. Labeling of oxLDL was done basically as previously described. OxLDLs were incubated at 37° C. with DiO (Molecular Probes) in lipoprotein-deficient serum (Sigma) for 15 hours. The labeled oxLDLs (oxLDL-DiO) were purified by ultracentrifugation over a KBr gradient and dialyzed against several changes of saline-EDTA ([…] NaCl-0.01% EDTA) for 6 hours.
Uptake of oxLDL: Uptake of oxLDL was studied with fluorescence-activated cell sorting (FACS). For FACS, the cells were pretreated for 16 hours with 50 μM tocopherol, tocopheryl phosphates, or ethanol solvent (control) and then incubated with oxLDL-DiO (5 μg/mL medium) for 6 hours. For competition experiments, the cells were incubated with monoclonal anti-CD36 antibody (60 μg/5 mL DMEM) (Ancell), with an unspecific isotype-matched antibody (mouse IgM, Ancell), or with unlabeled oxLDL (100 μg/5 mL DMEM) (Intracell Corp). Thereafter, the cells were washed 3 times with PBS and twice with PBS-3 mg/mL BSA and then were detached with trypsin (0.25% trypsin, 0.03% EDTA). […] Data were calculated by subtracting the cell autofluorescence from the fluorescence of the treated samples.

THP-1 monocytes [3] = test: Growth inhibition of THP-1 monocytes; assay type: cell-based, human
Protocol: as §1
Growth inhibition by TP/T2P mixture of THP-1 Monocytes: Monocyte proliferation is an important event in the onset and progression of atherosclerosis.

[4] = system: Rat Aortic Smooth Muscle Cells (RASMC); test: Counting adhered cells (Example 2, Study 1); assay type: cell-based; conditions: adhered cell counts, 0-100 μM, vs vehicle control
Protocol: This example assesses the anti-proliferative activity of α-tocopheryl phosphate (TP), di-tocopheryl phosphate (T2P), the TP/T2P mixture and α-tocopherol using two types of cell counting assays: adhered cell counts and MTS assay.
In this study cells remaining on the bottom of the plate were counted and anti-proliferative activity was assessed based on the number of viable cells that remained adhered to the plate.

[5] = system: Rat Aortic Smooth Muscle Cells (RASMC); test: MTS proliferation assay (Example 2, Study 2); assay type: cell-based; conditions: 100 μM, vs vehicle control
Protocol: The MTS proliferation assay was conducted to further support and compliment the adhered cell counts assay. The MTS assay is a well established method for the assessment of cellular proliferation which takes into account the viable cells that are adhered to the plate (as in adhered cell counts) and those that may become detached and float in the media during the course of the experiment (which would be missed in adhered cell counts).

Compound	Optimum inhibition of proliferation (plateau) ([1]; 72 h, higher doses)	Inhibition of cellular proliferation (in words) ([1]; listed as Tocopherol)	Inhibition of cellular proliferation (in words) ([1]; listed as α-tocopherol)	CD36 expression (in words) (CD36 scavenger receptor)	Concentration giving the same inhibition of oxLDL uptake (as 50 μM tocopherol, 33% reduction) (THP-1 monocytes [2])	Reduction of OxLDL-DiO uptake signal (median of the peak) (THP-1 monocytes [2]; 50 μM, 16 h pretreatment, 6 h oxLDL-DiO)	Inhibition of monocyte proliferation (in words) (THP-1 monocytes [3]; THP-1, TP/T2P at 30 μM (TP1) and 60 μM (TP2), especially after 48 h, relative to ethanol control)	Inhibition of proliferation of human monocyte cells (THP-1 monocytes [3]; THP-1 monocytes)	Maximum inhibition of smooth muscle cell proliferation [4]	Inhibition of smooth muscle cell proliferation [5]
Cc1c(C)c2c(c(C)c1O)CC[C@@](C)(CCC[C@H](C)CCC[C@H](C)CCCC(C)C)O2 [tocopherol, α-tocopherol]	around 60%	inhibited only to some degree	partially inhibited	expressed large amounts of CD36 receptors	50 µM	33%	not able to inhibit	no inhibition		
α-tocopheryl phosphate [TP]									did not inhibit	up to 85%
